pIC50: −log10 of the molar value. The source made the active and inactive calls. The calls are words filed in the database; no cut-off is given here.
Key:
SR = assay: Growth inhibition of human SR cells assessed as cell growth at 10^-8 M incubated for 48 hrs by sulforhodamine B assay relative to control; format: functional; conditions: read-out: Activity
NCI-H226 = assay: Growth inhibition of human NCI-H226 cells assessed as cell growth at 10^-8 M incubated for 48 hrs by sulforhodamine B assay relative to control; format: functional; conditions: NCI-H226, 48 h, read-out: Activity
HCT-116 [1] = assay: Growth inhibition of human HCT116 cells assessed as cell growth at 10^-8 M incubated for 48 hrs by sulforhodamine B assay relative to control; format: functional; conditions: HCT-116, 48 h, read-out: Activity
HCT-15 [2] = assay: Growth inhibition of human HCT15 cells assessed as cell growth at 10^-8 M incubated for 48 hrs by sulforhodamine B assay relative to control; format: functional; conditions: HCT-15, 48 h, read-out: Activity
M14 [3] = assay: Growth inhibition of human M14 cells assessed as cell growth at 10^-8 M incubated for 48 hrs by sulforhodamine B assay relative to control; format: functional; conditions: M14, 48 h, read-out: Activity
MCF7 = assay: Growth inhibition of human MCF7 cells assessed as cell growth at 10^-8 M incubated for 48 hrs by sulforhodamine B assay relative to control; format: functional; conditions: MCF7, 48 h, read-out: Activity
HOP-62 = assay: Growth inhibition of human HOP62 cells assessed as cell growth at 10^-7 M incubated for 48 hrs by sulforhodamine B assay relative to control; format: functional; conditions: HOP-62, 48 h, read-out: Activity
HCT-116 [4] = assay: Growth inhibition of human HCT116 cells assessed as cell growth at 10^-7 M incubated for 48 hrs by sulforhodamine B assay relative to control; format: functional; conditions: HCT-116, 48 h, read-out: Activity
SW-620 = assay: Growth inhibition of human SW620 cells assessed as cell growth at 10^-7 M incubated for 48 hrs by sulforhodamine B assay relative to control; format: functional; conditions: SW-620, 48 h, read-out: Activity
UACC-257 = assay: Growth inhibition of human UACC257 cells assessed as cell growth at 10^-7 M incubated for 48 hrs by sulforhodamine B assay relative to control; format: functional; conditions: UACC-257, 48 h, read-out: Activity
EKVX [5] = assay: Growth inhibition of human EKVX cells assessed as cell growth at 10^-6 M incubated for 48 hrs by sulforhodamine B assay relative to control; format: functional; conditions: read-out: Activity
MDA-MB-435 [6] = assay: Growth inhibition of human MDA-MB-435 cells assessed as cell growth at 10^-6 M incubated for 48 hrs by sulforhodamine B assay relative to control; format: functional; conditions: MDA-MB-435, 48 h, read-out: Activity
NCI/ADR-RES = assay: Growth inhibition of human NCI/ADR-RES cells assessed as cell growth at 10^-6 M incubated for 48 hrs by sulforhodamine B assay relative to control; format: functional; conditions: read-out: Activity
MDA-MB-468 = assay: Growth inhibition of human MDA-MB-468 cells assessed as cell growth at 10^-6 M incubated for 48 hrs by sulforhodamine B assay relative to control; format: functional; conditions: MDA-MB-468, 48 h, read-out: Activity
K562 = assay: Growth inhibition of human K562 cells assessed as cell growth at 10^-5 M incubated for 48 hrs by sulforhodamine B assay relative to control; format: functional; conditions: K562, 48 h, read-out: Activity
NCI-H23 = assay: Growth inhibition of human NCI-H23 cells assessed as cell growth at 10^-5 M incubated for 48 hrs by sulforhodamine B assay relative to control; format: functional; conditions: NCI-H23, 48 h, read-out: Activity
OVCAR-4 = assay: Growth inhibition of human OVCAR4 cells assessed as cell growth at 10^-5 M incubated for 48 hrs by sulforhodamine B assay relative to control; format: functional; conditions: OVCAR-4, 48 h, read-out: Activity
BT-549 = assay: Growth inhibition of human BT549 cells assessed as cell growth at 10^-5 M incubated for 48 hrs by sulforhodamine B assay relative to control; format: functional; conditions: BT-549, 48 h, read-out: Activity
OVCAR-3 = assay: Growth inhibition of human OVCAR3 cells assessed as cell growth at 10^-4 M incubated for 48 hrs by sulforhodamine B assay relative to control; format: functional; conditions: OVCAR-3, 48 h, read-out: Activity
RXF 393 = assay: Growth inhibition of human RXF393 cells assessed as cell growth at 10^-4 M incubated for 48 hrs by sulforhodamine B assay relative to control; format: functional; conditions: RXF 393, 48 h, read-out: Activity
EKVX [7] = assay: Growth inhibition of human EKVX cells incubated for 48 hrs by sulforhodamine B assay; format: functional
HCC 2998 = assay: Growth inhibition of human HCC2998 cells incubated for 48 hrs by sulforhodamine B assay; format: functional; conditions: HCC 2998, 48 h
HCT-15 [8] = assay: Growth inhibition of human HCT15 cells incubated for 48 hrs by sulforhodamine B assay; format: functional; conditions: HCT-15, 48 h
HT-29 = assay: Growth inhibition of human HT-29 cells incubated for 48 hrs by sulforhodamine B assay; format: functional; conditions: HT-29, 48 h
M14 [9] = assay: Growth inhibition of human M14 cells incubated for 48 hrs by sulforhodamine B assay; format: functional; conditions: M14, 48 h
ACHN = assay: Growth inhibition of human ACHN cells incubated for 48 hrs by sulforhodamine B assay; format: functional
MDA-MB-435 [10] = assay: Antiproliferative activity against human MDA-MB-435 cells after 24 hrs by MTT assay; format: functional; conditions: for GI50: Homo sapiens, MDA-MB-435, 24 h
MDA-MB-435 [11] = assay: Induction of apoptosis in human MDA-MB-435 cells assessed as early apoptotic cells by propidium iodide/Annexin V staining based flow cytometry (reference value: 0.25%); format: functional
HL-60 = assay: Induction of apoptosis in human HL60 cells assessed as increase in caspase-3 expression by qRT-PCR method; format: functional, cell-based
Histone deacetylase 8 = Histone deacetylase 8 (Homo sapiens, UniProt Q9BY41); assay: Inhibition of HDAC8 (unknown origin) by ELISA
MDA-MB-435 [12] = assay: Downregulation of HDAC3 mRNA expression in human MDA-MB-435 cells by qRT-PCR method; format: functional, cell-based
[13] = read-out: LC50 (the source's name)
[14] = read-out: pLC50 (the source's name) (converted)

Histone deacetylase 8, sequence (Q9BY41 whole entry): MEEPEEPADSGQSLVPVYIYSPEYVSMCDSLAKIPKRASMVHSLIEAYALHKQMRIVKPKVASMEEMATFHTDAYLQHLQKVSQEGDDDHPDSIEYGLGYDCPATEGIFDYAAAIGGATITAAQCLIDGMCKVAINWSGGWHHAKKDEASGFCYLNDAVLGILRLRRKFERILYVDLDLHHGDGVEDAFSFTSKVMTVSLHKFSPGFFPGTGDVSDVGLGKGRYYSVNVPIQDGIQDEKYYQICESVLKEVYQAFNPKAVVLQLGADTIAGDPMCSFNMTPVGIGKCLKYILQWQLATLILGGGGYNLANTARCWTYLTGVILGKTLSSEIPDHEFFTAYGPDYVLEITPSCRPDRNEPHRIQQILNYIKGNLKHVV

## CCS/C(Nc1ccccc1)=C(\C#N)C(=O)N/N=C\c1ccc(Cl)cc1Cl
SR
  growth at 0.01 µM: 91%
NCI-H226
  growth at 0.01 µM: 90%
HCT-116 [1]
  growth at 0.01 µM: 96%
HCT-15 [2]
  growth at 0.01 µM: 99%
M14 [3]
  growth at 0.01 µM: 101%
MCF7
  growth at 0.01 µM: 97%
HOP-62
  growth at 0.1 µM: 85%
HCT-116 [4]
  growth at 0.1 µM: 92%
SW-620
  growth at 0.1 µM: 92%
UACC-257
  growth at 0.1 µM: 94%
EKVX [5]
  growth at 1 µM: 87%
MDA-MB-435 [6]
  growth at 1 µM: 28%
NCI/ADR-RES
  growth at 1 µM: 87%
MDA-MB-468
  growth at 1 µM: 88%
K562
  growth at 10 µM: 10%
NCI-H23
  growth at 10 µM: 41%
OVCAR-4
  growth at 10 µM: 42%
BT-549
  growth at 10 µM: 18%
OVCAR-3
  growth at 100 µM: -23%
RXF 393
  growth at 100 µM: -22%
EKVX [7]; read-out: GI50
  GI50: 5.09 µM
EKVX [7]; [13]
  CC50: > 100 µM
EKVX [7]; read-out: TGI
  TGI: > 100 µM
EKVX [7]; read-out: pGI50 (converted)
  GI50: 5.13 µM
EKVX [7]; [14]
  CC50: > 100 µM
EKVX [7]; read-out: pTGI
  TGI: > 100 µM
HCC 2998; read-out: GI50
  GI50: 5.47 µM
HCC 2998; [13]
  CC50: > 100 µM
HCC 2998; read-out: TGI
  TGI: > 100 µM
HCC 2998; read-out: pGI50 (converted)
  GI50: 5.5 µM
HCC 2998; [14]
  CC50: > 100 µM
HCC 2998; read-out: pTGI
  TGI: > 100 µM
HCT-15 [8]; read-out: GI50
  GI50: 2.9 µM
HCT-15 [8]; [13]
  CC50: > 100 µM
HCT-15 [8]; read-out: TGI
  TGI: > 100 µM
HCT-15 [8]; read-out: pGI50 (converted)
  GI50: 2.88 µM
HCT-15 [8]; [14]
  CC50: > 100 µM
HCT-15 [8]; read-out: pTGI
  TGI: > 100 µM
HT-29; read-out: GI50
  GI50: 3.7 µM
HT-29; [13]
  CC50: > 100 µM
HT-29; read-out: TGI
  TGI: > 100 µM
HT-29; read-out: pGI50 (converted)
  GI50: 3.72 µM
HT-29; [14]
  CC50: > 100 µM
HT-29; read-out: pTGI (converted)
  TGI: > 100 µM
M14 [9]; read-out: GI50
  GI50: 2.01 µM
M14 [9]; [13]
  CC50: > 100 µM
M14 [9]; read-out: TGI
  TGI: 9.61 µM
M14 [9]; read-out: pGI50 (converted)
  GI50: 2 µM
M14 [9]; [14]
  CC50: > 100 µM
M14 [9]; read-out: pTGI (converted)
  TGI: 9.55 µM
ACHN; read-out: GI50
  GI50: 7.08 µM
ACHN; [13]
  CC50: > 100 µM
ACHN; read-out: TGI
  TGI: > 100 µM
ACHN; read-out: pGI50 (converted)
  GI50: 7.08 µM
ACHN; [14]
  CC50: > 100 µM
ACHN; read-out: pTGI
  TGI: > 100 µM
MDA-MB-435 [10]
  Activity: Dose-dependent effect
  GI50: 0.42 µM
MDA-MB-435 [11]
  Activity: 2.52%
HL-60
  Activity: Active
Histone deacetylase 8
  pIC50: 6.69
MDA-MB-435 [12]
  Activity: Active

## CCS/C(Nc1ccccc1)=C(\C#N)C(=O)Nc1ccc(OC)cc1
SR
  growth at 0.01 µM: 98%
NCI-H226
  growth at 0.01 µM: 95%
HCT-116 [1]
  growth at 0.01 µM: 100%
HCT-15 [2]
  growth at 0.01 µM: 98%
M14 [3]
  growth at 0.01 µM: 102%
MCF7
  growth at 0.01 µM: 98%
HOP-62
  growth at 0.1 µM: 84%
HCT-116 [4]
  growth at 0.1 µM: 89%
SW-620
  growth at 0.1 µM: 94%
UACC-257
  growth at 0.1 µM: 95%
EKVX [5]
  growth at 1 µM: 84%
MDA-MB-435 [6]
  growth at 1 µM: 19%
NCI/ADR-RES
  growth at 1 µM: 73%
MDA-MB-468
  growth at 1 µM: 60%
K562
  growth at 10 µM: 12%
NCI-H23
  growth at 10 µM: 34%
OVCAR-4
  growth at 10 µM: 45%
BT-549
  growth at 10 µM: 21%
OVCAR-3
  growth at 100 µM: -15%
RXF 393
  growth at 100 µM: -20%
EKVX [7]; read-out: GI50
  GI50: 4.42 µM
EKVX [7]; [13]
  CC50: > 100 µM
EKVX [7]; read-out: TGI
  TGI: > 100 µM
EKVX [7]; read-out: pGI50 (converted)
  GI50: 4.47 µM
EKVX [7]; [14]
  CC50: > 100 µM
EKVX [7]; read-out: pTGI
  TGI: > 100 µM
HCC 2998; read-out: GI50
  GI50: 6.56 µM
HCC 2998; [13]
  CC50: > 100 µM
HCC 2998; read-out: TGI
  TGI: > 100 µM
HCC 2998; read-out: pGI50 (converted)
  GI50: 6.61 µM
HCC 2998; [14]
  CC50: > 100 µM
HCC 2998; read-out: pTGI
  TGI: > 100 µM
HCT-15 [8]; read-out: GI50
  GI50: 1.19 µM
HCT-15 [8]; [13]
  CC50: > 100 µM
HCT-15 [8]; read-out: TGI
  TGI: > 100 µM
HCT-15 [8]; read-out: pGI50 (converted)
  GI50: 1.2 µM
HCT-15 [8]; [14]
  CC50: > 100 µM
HCT-15 [8]; read-out: pTGI
  TGI: > 100 µM
HT-29; read-out: GI50
  GI50: 3.47 µM
HT-29; [13]
  CC50: > 100 µM
HT-29; read-out: TGI
  TGI: 33.3 µM
HT-29; read-out: pGI50 (converted)
  GI50: 3.47 µM
HT-29; [14]
  CC50: > 100 µM
HT-29; read-out: pTGI (converted)
  TGI: 33.1 µM
M14 [9]; read-out: GI50
  GI50: 2.27 µM
M14 [9]; [13]
  CC50: > 100 µM
M14 [9]; read-out: TGI
  TGI: 87.4 µM
M14 [9]; read-out: pGI50 (converted)
  GI50: 2.29 µM
M14 [9]; [14]
  CC50: > 100 µM
M14 [9]; read-out: pTGI (converted)
  TGI: 87.1 µM
ACHN; read-out: GI50
  GI50: 5.04 µM
ACHN; [13]
  CC50: > 100 µM
ACHN; read-out: TGI
  TGI: > 100 µM
ACHN; read-out: pGI50 (converted)
  GI50: 5.01 µM
ACHN; [14]
  CC50: > 100 µM
ACHN; read-out: pTGI
  TGI: > 100 µM
MDA-MB-435 [10]
  Activity: Dose-dependent effect
  GI50: 0.37 µM
MDA-MB-435 [11]
  Activity: 4.61%
HL-60
  Activity: Active
Histone deacetylase 8
  pIC50: 6.53
MDA-MB-435 [12]
  Activity: Active
